# Experimental data reported in ChEMBL document CHEMBL1201862, “PubChem BioAssay data set” (2004).
# The source made the active and inactive calls.
# Tests used:
# [1] = NIH-3T3 fibroblast cytotoxicity, dose response, cytotoxicity control, cell-based, fluorescence, Alamar Blue, secondary assay (AID 2327); assay type: functional;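 note: NIH-3T3 mouse fibroblasts cultured with fluconazole at 8 µg/mL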
# [2] = fluconazole-exposed Candida albicans growth modulators – fluorescence, retest, confirmation (AID 2467); assay type: functional, cell-based
# [3] = Luminescence Cell-Based Dose Retest to Confirm Inhibitors of Cancer Stem Cells. [Related pubchem assays (depositor defined):AID2717, AID2721]; assay type: functional; settings: Homo sapiens
# [4] = viability loss of HMLE_sh_eGFP cells – cell-based, luminescence, counter-screen for HMLE_sh_ECad selective toxicity project, dose response (AID 463074); assay type: functional, Homo sapiens;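 note: HMLE human mammary epithelial cells expressing control shRNA against eGFP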
# Cytochrome P450 1A2 = molecular target: T1, Cytochrome P450 1A2 (Homo sapiens, UniProt P05177);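 note: PubChem cytochrome P450 panel assay, CYP1A2 panel member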
# T1 sequence (P05177 whole entry): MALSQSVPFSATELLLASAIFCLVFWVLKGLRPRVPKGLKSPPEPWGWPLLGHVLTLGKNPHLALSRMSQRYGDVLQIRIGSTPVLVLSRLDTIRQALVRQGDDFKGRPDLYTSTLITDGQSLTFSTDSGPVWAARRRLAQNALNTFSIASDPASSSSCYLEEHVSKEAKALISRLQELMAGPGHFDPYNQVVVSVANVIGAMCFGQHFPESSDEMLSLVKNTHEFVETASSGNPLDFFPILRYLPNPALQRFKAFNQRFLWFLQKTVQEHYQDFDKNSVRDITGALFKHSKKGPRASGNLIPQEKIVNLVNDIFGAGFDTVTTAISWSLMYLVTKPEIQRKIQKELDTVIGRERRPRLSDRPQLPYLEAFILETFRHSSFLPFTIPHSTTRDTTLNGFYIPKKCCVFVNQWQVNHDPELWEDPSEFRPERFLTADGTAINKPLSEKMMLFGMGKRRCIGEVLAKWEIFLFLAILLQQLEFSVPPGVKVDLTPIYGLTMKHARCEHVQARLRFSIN
# [5] = molecular target: Dual specificity protein phosphatase 3 (Homo sapiens, UniProt P51452); assay: SAR VHR1 Fluorescent Assay for In Vitro dose response studies Set 3. [Related pubchem assays (depositor defined):AID1654, AID1661, AID1878]; assay type: functional
# [6] = viability of PTEN-deleted HCT116 cells – cell-based, HCT116 PTEN knockout, dose response (AID 1047); assay type: functional;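 note: HCT116 colon tumor cells with PTEN knocked out; cells exposed to compound for 60 hours before readout; potency for loss of cell viability measured by luminescence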
# [7] = viability of HCT116 lacking mutant beta-catenin – cell-based, human colon tumor, dose response (AID 1045); assay type: functional;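 note: HCT116 colon tumor cells with beta catenin knocked out; cells exposed to compound for 60 hours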
# [8] = molecular target: T2, Mannose-6-phosphate isomerase (Homo sapiens, UniProt P34949); assay: MPI inhibition at elevated mannose 6-phosphate – biochemical, fluorescence intensity, high mannose 6-phosphate, primary screen (AID 1220)
# T2 sequence (P34949 whole entry): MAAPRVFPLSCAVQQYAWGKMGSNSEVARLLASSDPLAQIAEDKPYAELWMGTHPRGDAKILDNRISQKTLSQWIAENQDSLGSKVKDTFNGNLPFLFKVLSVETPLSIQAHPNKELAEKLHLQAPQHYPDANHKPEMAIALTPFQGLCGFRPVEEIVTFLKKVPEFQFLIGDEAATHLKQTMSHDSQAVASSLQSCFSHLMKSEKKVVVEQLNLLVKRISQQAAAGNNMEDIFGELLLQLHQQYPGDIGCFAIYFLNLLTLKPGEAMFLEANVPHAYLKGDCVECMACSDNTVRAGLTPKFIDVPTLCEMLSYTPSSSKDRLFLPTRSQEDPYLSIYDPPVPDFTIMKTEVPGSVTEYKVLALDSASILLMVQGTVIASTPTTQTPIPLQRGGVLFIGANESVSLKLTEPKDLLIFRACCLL
# [9] = molecular target: Neurotensin receptor type 1 (Homo sapiens, UniProt P30989); assay type: functional;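 note: Image-based confirmatory dose-response assay measuring agonist activity at NTR1; NTR1-expressing U2OS osteosarcoma cells imaged for beta-arrestin GFP spot formation; agonist potency where compounds increase beta-arrestin recruitment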
# Nonstructural protein 1 = Nonstructural protein 1 (Influenza A virus, UniProt Q194T2); assay type: functional, Influenza A virus (A/California/07/2009(H1N1))
# [10] = molecular target: T3, Heat shock factor protein 1 (Mus musculus, UniProt P38532); assay: enhancement of HSF1-driven luciferase signal – cell-based, NIH3T3, luminescence, dose retest, confirmation (AID 435004); assay type: functional;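 note: stress induced by proteasome inhibitor MG132 added 30 min after compound; luciferase reporter driven by HSF1 response element in NIH3T3 cells; actives raise luminescence as potentiators of the MG132 stress response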
# T3 sequence (P38532 whole entry): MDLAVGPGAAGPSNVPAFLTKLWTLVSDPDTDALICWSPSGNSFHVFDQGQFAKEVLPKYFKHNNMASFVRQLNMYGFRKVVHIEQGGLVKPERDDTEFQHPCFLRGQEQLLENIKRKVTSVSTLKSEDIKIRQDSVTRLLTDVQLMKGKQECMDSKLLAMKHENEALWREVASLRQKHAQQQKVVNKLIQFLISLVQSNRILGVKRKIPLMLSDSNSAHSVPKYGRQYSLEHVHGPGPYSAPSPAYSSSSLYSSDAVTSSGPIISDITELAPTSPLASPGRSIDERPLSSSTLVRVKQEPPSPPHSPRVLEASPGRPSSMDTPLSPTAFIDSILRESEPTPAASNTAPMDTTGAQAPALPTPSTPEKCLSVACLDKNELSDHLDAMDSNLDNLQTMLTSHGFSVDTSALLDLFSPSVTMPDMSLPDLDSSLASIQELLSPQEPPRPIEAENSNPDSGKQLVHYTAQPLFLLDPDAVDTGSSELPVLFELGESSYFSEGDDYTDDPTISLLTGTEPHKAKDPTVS
# MDCK = assay: antiviral activity against H1N1 influenza, dose response, cell-based, strain KY136 (AID 540257); assay type: functional; settings: Canis lupus familiaris
# [11] = viability loss in HeLa cells – cytotoxicity control for MgcRacGAP inhibitor project, dose response (AID 624300); assay type: functional
# [12] = molecular target: T4, Rac GTPase-activating protein 1 (Homo sapiens, UniProt Q9H0H5); assay: blockers of MgcRacGAP-driven Rac1 GTP hydrolysis – biochemical, ADP Hunter fluorescence, primary and confirmatory, confirmation (AID 624330); assay type: functional
# T4 sequence (Q9H0H5 whole entry): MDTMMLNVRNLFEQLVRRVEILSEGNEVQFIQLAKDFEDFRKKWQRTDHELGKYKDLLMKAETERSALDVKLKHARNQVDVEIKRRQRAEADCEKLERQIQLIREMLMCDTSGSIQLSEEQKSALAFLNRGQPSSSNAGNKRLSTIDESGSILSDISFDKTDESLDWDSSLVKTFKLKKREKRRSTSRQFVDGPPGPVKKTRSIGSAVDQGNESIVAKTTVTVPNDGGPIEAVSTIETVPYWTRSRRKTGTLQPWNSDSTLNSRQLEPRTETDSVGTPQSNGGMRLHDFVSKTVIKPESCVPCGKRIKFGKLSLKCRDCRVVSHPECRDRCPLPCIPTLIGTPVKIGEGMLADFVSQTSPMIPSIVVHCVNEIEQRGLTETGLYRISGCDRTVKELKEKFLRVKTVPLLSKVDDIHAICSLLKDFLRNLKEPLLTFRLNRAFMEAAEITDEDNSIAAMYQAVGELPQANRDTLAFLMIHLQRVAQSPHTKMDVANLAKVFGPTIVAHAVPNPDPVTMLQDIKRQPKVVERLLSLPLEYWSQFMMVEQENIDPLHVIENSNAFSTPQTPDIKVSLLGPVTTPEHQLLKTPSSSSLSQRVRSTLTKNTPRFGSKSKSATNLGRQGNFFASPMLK
# [13] = molecular target: T5, Short transient receptor potential channel 4 (Mus musculus, UniProt Q9QUQ5); assay: calcium entry via TRPC4 opening agents – cell-based, HEK293 TRPC4/mu-opioid, Fluo-4 calcium, dose response (AID 434937); assay type: functional
# T5 sequence (Q9QUQ5 whole entry): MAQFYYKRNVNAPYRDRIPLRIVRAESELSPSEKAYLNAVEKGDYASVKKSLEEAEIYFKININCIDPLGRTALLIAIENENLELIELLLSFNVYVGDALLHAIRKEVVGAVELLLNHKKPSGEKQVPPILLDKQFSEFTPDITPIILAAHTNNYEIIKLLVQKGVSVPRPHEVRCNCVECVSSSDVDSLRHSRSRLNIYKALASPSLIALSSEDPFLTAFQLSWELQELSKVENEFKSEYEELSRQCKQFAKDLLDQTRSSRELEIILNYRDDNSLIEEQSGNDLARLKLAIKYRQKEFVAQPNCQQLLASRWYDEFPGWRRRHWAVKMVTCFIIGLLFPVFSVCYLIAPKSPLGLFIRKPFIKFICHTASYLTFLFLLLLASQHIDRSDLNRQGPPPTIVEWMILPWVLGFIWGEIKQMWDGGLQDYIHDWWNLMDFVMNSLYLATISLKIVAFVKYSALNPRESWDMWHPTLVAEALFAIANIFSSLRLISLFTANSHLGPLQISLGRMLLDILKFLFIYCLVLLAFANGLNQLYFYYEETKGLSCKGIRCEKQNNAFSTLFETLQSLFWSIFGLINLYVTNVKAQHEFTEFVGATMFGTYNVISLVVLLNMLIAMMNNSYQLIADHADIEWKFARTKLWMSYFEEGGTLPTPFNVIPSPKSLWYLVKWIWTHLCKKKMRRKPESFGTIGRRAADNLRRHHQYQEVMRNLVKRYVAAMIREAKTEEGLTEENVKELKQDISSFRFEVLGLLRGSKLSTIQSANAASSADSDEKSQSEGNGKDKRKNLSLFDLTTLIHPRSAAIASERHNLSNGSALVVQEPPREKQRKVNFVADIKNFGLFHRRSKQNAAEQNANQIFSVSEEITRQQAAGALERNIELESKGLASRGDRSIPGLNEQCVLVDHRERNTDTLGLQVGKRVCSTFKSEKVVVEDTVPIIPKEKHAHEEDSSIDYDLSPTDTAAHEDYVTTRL
# [14] = molecular target: Delta-type opioid receptor (Homo sapiens, UniProt P41143); assay: Counterscreen for agonists of heterodimerization of the mu 1 (OPRM1) and delta 1 (OPRD1) opioid receptors: Luminescence-based cell-based high throughput dose response assay to identify agonists of OPRD1 homodimerization. [Related pubchem assays (depositor defined):AID504326, AID504355, AID504692, AID504904, AID504905]; assay type: functional
# Mu-type opioid receptor = Mu-type opioid receptor (Homo sapiens, UniProt P35372); assay: Counterscreen for agonists of heterodimerization of the mu 1 (OPRM1) and delta 1 (OPRD1) opioid receptors: Luminescence-based cell-based high throughput dose response assay to identify agonists of OPRM1 homodimerization.; assay type: functional;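 note: U2OS cells expressing OPRM1 and beta-arrestin as split beta-galactosidase partners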
# [15] = molecular target: Opioid receptors; mu & delta (Homo sapiens, UniProt P41143+P35372); assay: OPRM1-OPRD1 heterodimer agonist potency – cell-based, luminescence, dose response (AID 588407); assay type: functional
# [16] = molecular target: 5-hydroxytryptamine receptor 5A (Homo sapiens, UniProt P47898); assay: Counterscreen for agonists of OPRM1-OPRD1 heterodimerization: luminescence-based cell-based high throughput dose response assay to identify agonists of 5-hydroxytryptamine (serotonin) 5A receptor (HTR5A). [Related pubchem assays (depositor defined):AID504326, AID504355, AID504692, AID504904, AID504905]; assay type: functional
# Chain of 5-hydroxytryptamine receptor 5A (P47898 whole entry): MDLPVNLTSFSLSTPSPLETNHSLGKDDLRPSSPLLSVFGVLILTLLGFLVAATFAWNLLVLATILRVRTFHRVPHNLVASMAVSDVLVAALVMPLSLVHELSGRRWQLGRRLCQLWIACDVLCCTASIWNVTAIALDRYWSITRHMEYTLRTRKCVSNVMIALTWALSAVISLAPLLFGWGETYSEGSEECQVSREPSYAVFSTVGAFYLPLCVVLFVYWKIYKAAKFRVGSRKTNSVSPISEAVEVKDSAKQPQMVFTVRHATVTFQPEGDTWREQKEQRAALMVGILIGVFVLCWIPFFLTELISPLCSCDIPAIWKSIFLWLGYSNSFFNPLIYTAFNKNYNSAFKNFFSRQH
# Chain of Delta-type opioid receptor (P41143 whole entry): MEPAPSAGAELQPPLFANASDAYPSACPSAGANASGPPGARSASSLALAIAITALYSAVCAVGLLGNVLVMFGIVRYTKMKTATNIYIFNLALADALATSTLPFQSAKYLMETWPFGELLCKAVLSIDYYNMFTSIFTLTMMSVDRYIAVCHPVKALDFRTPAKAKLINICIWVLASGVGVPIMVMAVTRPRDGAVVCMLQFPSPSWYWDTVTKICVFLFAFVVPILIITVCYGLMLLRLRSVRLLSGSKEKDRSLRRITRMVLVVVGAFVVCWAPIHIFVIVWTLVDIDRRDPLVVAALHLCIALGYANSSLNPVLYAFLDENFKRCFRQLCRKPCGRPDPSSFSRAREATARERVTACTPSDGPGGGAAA
# Chain of Neurotensin receptor type 1 (P30989 whole entry): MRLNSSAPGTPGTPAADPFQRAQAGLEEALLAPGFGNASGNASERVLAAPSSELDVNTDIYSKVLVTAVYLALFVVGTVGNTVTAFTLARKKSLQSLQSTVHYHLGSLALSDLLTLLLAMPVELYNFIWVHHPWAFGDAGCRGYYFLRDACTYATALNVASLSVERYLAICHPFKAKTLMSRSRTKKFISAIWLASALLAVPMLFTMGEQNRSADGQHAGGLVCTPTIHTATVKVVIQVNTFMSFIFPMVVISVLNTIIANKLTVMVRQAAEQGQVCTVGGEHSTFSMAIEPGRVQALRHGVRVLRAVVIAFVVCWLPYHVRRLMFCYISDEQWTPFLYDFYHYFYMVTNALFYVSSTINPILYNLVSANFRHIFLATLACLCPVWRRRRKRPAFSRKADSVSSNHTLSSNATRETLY
# Chain of Nonstructural protein 1 (Q194T2 whole entry): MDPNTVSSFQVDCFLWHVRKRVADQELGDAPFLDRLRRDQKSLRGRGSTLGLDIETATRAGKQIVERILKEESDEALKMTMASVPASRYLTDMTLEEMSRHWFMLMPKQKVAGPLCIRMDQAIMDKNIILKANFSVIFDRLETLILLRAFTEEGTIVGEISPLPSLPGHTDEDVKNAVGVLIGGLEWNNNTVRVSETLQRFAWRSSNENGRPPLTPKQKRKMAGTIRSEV
# Chain of Dual specificity protein phosphatase 3 (P51452 whole entry): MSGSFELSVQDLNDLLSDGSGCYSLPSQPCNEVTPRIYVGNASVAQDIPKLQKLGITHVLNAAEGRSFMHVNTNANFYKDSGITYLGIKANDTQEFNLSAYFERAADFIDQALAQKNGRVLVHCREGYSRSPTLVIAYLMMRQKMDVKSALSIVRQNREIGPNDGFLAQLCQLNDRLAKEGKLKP
# Chain of Mu-type opioid receptor (P35372 whole entry): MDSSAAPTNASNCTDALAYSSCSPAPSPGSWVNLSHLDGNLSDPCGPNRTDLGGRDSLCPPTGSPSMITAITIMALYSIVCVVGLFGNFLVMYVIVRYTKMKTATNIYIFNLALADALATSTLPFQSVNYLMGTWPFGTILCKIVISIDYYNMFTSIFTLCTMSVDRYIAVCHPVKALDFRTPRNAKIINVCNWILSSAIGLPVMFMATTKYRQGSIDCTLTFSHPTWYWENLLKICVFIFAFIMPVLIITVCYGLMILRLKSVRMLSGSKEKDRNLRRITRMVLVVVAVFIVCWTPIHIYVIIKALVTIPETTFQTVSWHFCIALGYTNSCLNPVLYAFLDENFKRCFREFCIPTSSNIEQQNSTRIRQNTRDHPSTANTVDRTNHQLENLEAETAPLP
compound,measurement,setting,value
CCCc1ccc(C2C3=C(CC(C)(C)CC3=O)N=C3C2=C(O)c2ccccc23)cc1 (stereo not given),EC50,[1],> 150 µM (inactive)
same,EC50,[2],2.66 µM (active)
same,AC50,[3],24.9 µM (active)
same,AC50,[4],187 µM (active)
same,AC50,Cytochrome P450 1A2,6.31 µM (inconclusive)
Cn1cnnc1SCC(=O)Nc1ccc2nc(SCC(=O)c3ccccc3)sc2c1,IC50,[5],> 66 µM (inactive)
COC(=O)c1ccc2c(c1)C(C)(C)C(/C=C/c1ccc(O)cc1)=[N+]2C,EC50,[6],2.06 µM (active)
same,EC50,[7],2.15 µM (active)
same,IC50,[8],> 50 µM (not active)
same,EC50,[9],7.59 µM (active)
same,IC50,Nonstructural protein 1,20.2 µM (active)
same,EC50,[10],> 260 µM (inconclusive)
same,IC50,MDCK,5.29 µM (active)
same,CC50,[11],35.1 µM (active)
same,IC50,[12],29.5 µM (active)
CN(C)CCCN(C(=O)c1ccc(S(=O)(=O)N(C)C2CCCCC2)cc1)c1nc2ccc(F)cc2s1.Cl,EC50,[13],1.88 µM (active)
same,EC50,[14],69.2 µM (inactive)
same,EC50,Mu-type opioid receptor,4.85 µM (active)
same,EC50,[15],> 0.3805 µM
same,EC50,[16],> 92.5 µM (inactive)
